Results as given in PubChem BioAssay AID743059 (The Scripps Research Institute Molecular Screening Center, 2013).
Calls of active or inactive are those of the source.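 Rule for the calls: active = EC50 at or below 10 µM; inactive = EC50 above 10 µM.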

Target: Nuclear hormone receptor DAF-12 (Heterodera glycines)
Assay: hgDAF-12 reporter activation EC50 – cell-based, luminescence, HEK293, dose response (AID 743059);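 note: agonist potency for compounds that raise hgDAF-12 reporter luminescence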
Conditions: HEK293 hgDAF-12 reporter, luciferase luminescence

| Structure (SMILES) | EC50 |
| --- | --- |
| CCNC(=S)NNC(=O)c1cc(-c2ccc(OCC)cc2)nc2ccccc12 | > 67.5 µM (inactive) |
| Clc1ccc(-c2cn3cc(Cl)ccc3n2)cc1 | > 67.6 µM (inactive) |
| Nc1c(OS(=O)(=O)c2ccccc2)cccc1OS(=O)(=O)c1ccccc1 | > 67.5 µM (inactive) |
| Brc1ccc(-c2noc(-c3ccccc3)n2)o1 | > 67.6 µM (inactive) |
| C#CCNC(=O)C[C@H]1C[C@@]2(C(=O)OC)C(=C[C@H](C(C)C)O[C@@H]2C2CC2)N(CCCCCCCC)C1=O | > 67.5 µM (inactive) |
| Cc1ccnc(NC(=O)/C=C/c2cccs2)c1 | > 67.6 µM (inactive) |
| Cc1ccc(/C(N)=N/OC(=O)c2ccco2)cc1 | > 67.5 µM (inactive) |
| CCN(CC)S(=O)(=O)c1ccc(C(=O)OCC(=O)Nc2ccc(-c3nc4ccc(C)cc4s3)cc2)cc1 | > 67.5 µM (inactive) |
| O=c1[nH]cnc2cc(-c3ccccc3)sc12 | > 67.5 µM (inactive) |
| Cc1cc(N=Nc2ccc3ccccc3c2)ccc1O | > 67.6 µM (inactive) |
| COCCNC(=O)/C(C#N)=C/c1cc(C)n(-c2ccc(C)cc2)c1C | > 67.5 µM (inactive) |
| c1ccc(CN=C2Nc3ccccc3CS2)nc1 | > 67.5 µM (inactive) |
| C=CCN1C=CC(=C/C=C(/C#N)C(=O)OCC)C=C1 | > 67.5 µM (inactive) |
| CCS(=O)(=O)Nc1cc(-c2nc3cccnc3s2)ccc1C | > 67.5 µM (inactive) |
| C(=N\NC1=Nc2cccc3cccc1c23)/c1ccccc1 | > 67.5 µM (inactive) |
| Cc1nn(-c2ccccc2)c(Cl)c1/C=N/Nc1ccc(Cl)c(C(=O)O)c1 | > 67.5 µM (inactive) |
| CCOC(=O)c1cnc(SCCc2ccccc2)nc1N | > 67.5 µM (inactive) |
| Cc1ccc(/C(N)=N/OC(=O)c2cccs2)cc1 | > 67.6 µM (inactive) |
| COCC1CCN(Cc2nc(-c3cccs3)no2)C1 (centres undefined) | > 67.5 µM (inactive) |
| Cc1c(C(=O)Nc2ccccc2)csc1-c1ccccc1 | > 67.5 µM (inactive) |
| C/C(=N/NC(=O)c1cc(C(C)C)[nH]n1)c1cccs1 | > 67.6 µM (inactive) |
| COc1ccc(Nc2nccc(-c3cccc(N)c3)n2)cc1 | > 67.5 µM (inactive) |
| N#C/C(=N\Nc1ccc(Cl)cc1)C(=N)N1CCCCCC1 | > 67.5 µM (inactive) |
| CCOC(=O)c1c(C)oc2c1cc(O)c1ccccc12 | > 67.5 µM (inactive) |
| Cc1ccc(N/N=C(\C#N)C(=N)N2CCCCCC2)cc1 | > 67.5 µM (inactive) |
| FC(F)(F)c1cc(Cl)c2nc(-c3ccccc3)cn2c1 | > 67.5 µM (inactive) |
| Cc1ccc(/C=N/N=C/c2ccc(C)s2)s1 | > 67.5 µM (inactive) |

| Structure (SMILES) | EC50 |
| --- | --- |
| Cc1ccnc(NC(=O)CCNS(=O)(=O)c2ccc(C)c(C)c2)c1 | > 67.6 µM (inactive) |
| O=C(CCCc1ccccc1)NC12CC3CC(CC(C3)C1)C2 | > 67.5 µM (inactive) |
| Oc1ccccc1-c1cc(-c2ccc3c(c2)OCCO3)n[nH]1 | > 67.6 µM (inactive) |
| C=CCN1C(=O)[C@@H](CC(=O)N2CCSCC2)[C@]2(C(=O)OC)CCCCC=C12 | > 67.5 µM (inactive) |
| Cn1c(NC(=O)CCc2ccccc2)cc(=O)n(C)c1=O | > 67.5 µM (inactive) |
| Cn1c(O)c(N=NC(=O)c2ccco2)c2ccccc21 | > 67.5 µM (inactive) |
| Cc1nn(C(=O)c2cccs2)c(N)c1-c1ccccc1 | > 67.5 µM (inactive) |
| O=C(NCCCn1ccnc1)c1cc(-c2ccccc2)on1 | 9.16 µM |
| Cc1ccc2c(c1)N=C(c1ccccc1)CC(C(Cl)Cl)=N2 | > 67.5 µM (inactive) |
| CCc1sc(C(=O)Nc2ncccc2O)cc1C | inactive |
| CC(=Nc1ccccc1)c1sc2ccccc2c1O | > 67.6 µM (inactive) |
| O=C(CC(=O)c1cccs1)c1ccncc1 | > 67.5 µM (inactive) |
| C/C(=C\C(=O)c1sccc1Cl)N(C)C | > 67.6 µM (inactive) |
| CCOC(=O)c1cn[nH]c1NC(=S)Nc1ccccc1 | > 67.6 µM (inactive) |
| Cc1ccc(CN2CCN(CC(C)C)C(CCO)C2)s1 (centres undefined) | > 67.6 µM (inactive) |
| CN(C)c1ccc2c(=O)c3ccccc3oc2n1 | > 67.6 µM (inactive) |
| Oc1cccc(/C=C/c2ccc3cccc(O)c3n2)c1 | > 67.6 µM (inactive) |
| N#Cc1c(N)nc(N)nc1Nc1ccc(Br)cc1 | > 67.4 µM (inactive) |
| CC1CCC(NC(=O)c2cccn2C)CC1 (centres undefined) | > 67.6 µM (inactive) |
| CCCn1c(=NC(=O)c2ccco2)c(C(=O)OCC)cc2c(=O)n3ccccc3nc21 | > 67.5 µM (inactive) |
| Cc1c(C(=O)OC2CCC(C)CC2)[nH]c2c1C(=O)CCC2 (centres undefined) | > 67.5 µM (inactive) |
| N/C(=N\OC(=O)c1cc(Br)ccc1Cl)c1ccccn1 | > 67.5 µM (inactive) |
| Cc1ccc(-c2nc(-c3ccncc3)no2)cc1C | > 67.5 µM (inactive) |
| OCCN1CCN(c2cnc(-c3ccsc3)cn2)CC1 | > 67.5 µM (inactive) |
| c1ccc(CSc2ccc(-c3cccs3)nn2)cc1 | > 67.5 µM (inactive) |
| Cc1cccc(/C=C\c2nc3ccccc3c(=O)[nH]2)c1 | > 67.5 µM (inactive) |
| COC(=O)c1sc2nc3c(cc2c1N)CCCC3 | > 67.5 µM (inactive) |

| Structure (SMILES) | EC50 |
| --- | --- |
| O=C(NCCCn1ccnc1)c1cc(-c2cccs2)on1 | 9.01 µM |
| O=C(NCC1CCCO1)c1cc(-c2ccccc2F)no1 (centres undefined) | inactive |
| Cc1ccc(-c2nc(Nc3ccccc3)n[nH]2)cc1 | > 67.5 µM (inactive) |
| CCCCCc1nnc(NC(=O)C2=COCCO2)s1 | > 67.6 µM (inactive) |
| Fc1ccc(-n2nnc(-c3cccnc3Cl)n2)cc1 | > 67.5 µM (inactive) |
| Cc1ccn(-c2cccc(-n3ccc(C)n3)n2)n1 | > 67.6 µM (inactive) |
| Cc1ccc(SCCN2CCC(C)CCC2=O)cc1 (centres undefined) | > 67.5 µM (inactive) |
| Cc1ccc2nc(-c3ccccn3)oc2c1 | > 67.6 µM (inactive) |
| Cc1ccc(-c2onc3ccc(C(=O)O)cc23)cc1 | > 67.6 µM (inactive) |
| Clc1ccccc1Nc1nnc(-c2ccncc2)s1 | > 67.5 µM (inactive) |
| N=C1c2ccccc2CN1CC(=O)c1ccccc1 | > 67.6 µM (inactive) |
| Cc1ccc(OCc2ccc(Br)cc2)c([N+](=O)[O-])n1 | > 67.5 µM (inactive) |
| Oc1[nH]c2ccccc2c1N=Nc1ccccc1F | > 67.6 µM (inactive) |
| Cc1cc(NC(=O)CSc2nc3c(cc2C#N)CCC3)no1 | > 67.6 µM (inactive) |
| Oc1ccccc1-c1cc(-c2ccc(Cl)cc2)n[nH]1 | > 67.5 µM (inactive) |
| Cc1nn(-c2nnc(NC3CCCCC3)nn2)c(C)c1Br | > 67.6 µM (inactive) |
| Cc1cc(C)nc(-n2nc(C)c(Sc3ccc(F)cc3)c2N)n1 | > 67.5 µM (inactive) |
| Cc1cc(C(=O)NC2=NCCS2)cs1 | > 67.5 µM (inactive) |
| C(=C\n1nnc2ccccc21)/c1ccccn1 | > 67.5 µM (inactive) |
| c1csc(-c2nnc(-c3ccc(N4CCOCC4)cc3)o2)c1 | > 67.5 µM (inactive) |
| Cc1cc(NC(=O)c2nn3cccnc3c2Cl)no1 | > 67.5 µM (inactive) |
| c1ccc(Nc2nc(-c3ccccc3)ns2)cc1 | > 67.6 µM (inactive) |
| CCOc1ccc(-c2c(=O)n(O)c3ccccc3[n+]2[O-])cc1 | inactive |
| Cc1ccc(NC(=S)N/C(=N/S(=O)(=O)c2ccccc2)c2ccccc2)cc1 | > 67.5 µM (inactive) |
| CN1CCN(/C=N/c2sc3c(c2C#N)CCCCC3)CC1 | > 67.5 µM (inactive) |
